The target in assay [1] is human IRE-1α (GST-IRE-1α) (Homo sapiens (Human), UniProt O75460). Put plainly: IRE-1α assay in vitro: cleavage of Cy5/BHQ2-labelled mini-XBP-1 mRNA stem-loop substrate. The following applies: average IC50 for inhibition of IRE-1α. It counts as biochemical. The method, then: In some embodiments IRE-la inhibitor compounds form a complex with IRE-1α. […] Other substrates also can be used to detect cleavage. See US 2007/0105123.
A fusion protein comprising glutathione S transferase (GST) and human IRE-1α (GST-IRE-1α) obtained from a 500 ml baculovirus-infected insect cell culture can be used to measure IRE-1α activity in vitro.
Five μl of a reaction mixture comprising IX reaction buffer (5× reaction buffer is 100 mM Hepes pH 7.5, 250 mM KOAc, 2.5 mM MgCl2), 3 mM DTT, and 0.4% polyethylene glycol water is added to each well of 384 well plates. Twenty-five nanoliters of a 1 mM test compound solution are added to test wells. Three μl of a […] IRE-1α preparation are added to each test well and to positive control wells (final concentration 5.82 ng/well). Negative control wells contain only reaction mixture and test compound.
After spinning the plates at 1200 rpm for 30 seconds, 3 μl of an IRE-1α human mini-XBP-1 mRNA stem-loop substrate 5′-[…]-3′ (SEQ ID NO:1), labeled with the fluorescent dye Cy5 at the 5′ end and Black Hole Quencher 2 (BH2) at the 3′ end, are added to each well of a control plate. The plates are again spun at 1200 rpm for 30 seconds. Final concentrations for the assay are: 63 nM IRE-1α substrate, 5.82 ng IRE-1α protein, and 2.5 μM test compound.
The plates are covered with lids and incubated for one hour at 30° C. The plates are then transferred to an ACQUEST™ microplate reader. Data is analyzed using data analysis software, and the percent activity of IRE-1α is calculated.
IC50 for inhibition of IRE-1α of compounds identified in Table 1 was measured as described in EXAMPLE 35.

In assay [2] the test system is IRE-1α-mediated XBP-1 splicing in human myeloma MM.1s cells. The experiment in a line: Cellular EC50: endogenous XBP-1 splicing in myeloma cells by RT-PCR (DTT stress). In kind it is cell-based. Particulars: MM1.S, read-out: EC50_av. The method, then:
Human myeloma MM.1s cells are incubated with a compound for 1.25 hours before stressing the cells with 2 mM dithiothreitol (DTT). After an additional 45 minutes (2 hours total) with compound and DTT, the cells are harvested with TRIZOL® (a mono-phasic solution of phenol and guanidine isothiocyanate), and total RNA is prepared as directed by the manufacturer (Invitrogen). Human XBP-1 is amplified by RT-PCR with the following primers, which flank the 26 base unconventional intron excised by IRE-1α:
RT-PCR of unstressed (U) cells then generates the upper band. When cells are stressed (S) with the endoplasmic reticulum (ER) stressing agent DTT, IRE-1α is activated due to accumulating unfolded protein and the resulting RT-PCR, product is 26 base pairs shorter.
Compounds which pass specificity assays are assayed for cellular EC50 using endogenous XBP-1 splicing in myeloma cells. XBP-1 is regulated through the excision of a 26 nucleotide intron from the XBP-1 mRNA by the highly specific endoribonuclease activity of IRE-1α. […] This splicing event is used to measure IRE-1α activity on XBP-1 mRNA in cells and tissues.
Briefly, compounds are incubated in the presence or absence of an ER stress agent (e.g., DTT), and the ratio of XBP-1u (unspliced) to XBP-1 s (spliced) is quantified by RT-PCR. The ED50 is determined as the 50% XBP-1s to total XPB-1 levels.

[3] abbreviates: average cellular EC50, XBP-1 splicing in myeloma cells.

This is an account of results in patent US9040714B2 (MannKind Corporation, priority 2010, dated 2015).

Structures are written as SMILES. Where two headings read alike, the source gives them in different places.

Broadly, the IC50 is the point on the concentration scale where inhibition reaches its midpoint. Read a low IC50 as greater potency in that assay.

Chain of human IRE-1α (GST-IRE-1α) (O75460 19-977): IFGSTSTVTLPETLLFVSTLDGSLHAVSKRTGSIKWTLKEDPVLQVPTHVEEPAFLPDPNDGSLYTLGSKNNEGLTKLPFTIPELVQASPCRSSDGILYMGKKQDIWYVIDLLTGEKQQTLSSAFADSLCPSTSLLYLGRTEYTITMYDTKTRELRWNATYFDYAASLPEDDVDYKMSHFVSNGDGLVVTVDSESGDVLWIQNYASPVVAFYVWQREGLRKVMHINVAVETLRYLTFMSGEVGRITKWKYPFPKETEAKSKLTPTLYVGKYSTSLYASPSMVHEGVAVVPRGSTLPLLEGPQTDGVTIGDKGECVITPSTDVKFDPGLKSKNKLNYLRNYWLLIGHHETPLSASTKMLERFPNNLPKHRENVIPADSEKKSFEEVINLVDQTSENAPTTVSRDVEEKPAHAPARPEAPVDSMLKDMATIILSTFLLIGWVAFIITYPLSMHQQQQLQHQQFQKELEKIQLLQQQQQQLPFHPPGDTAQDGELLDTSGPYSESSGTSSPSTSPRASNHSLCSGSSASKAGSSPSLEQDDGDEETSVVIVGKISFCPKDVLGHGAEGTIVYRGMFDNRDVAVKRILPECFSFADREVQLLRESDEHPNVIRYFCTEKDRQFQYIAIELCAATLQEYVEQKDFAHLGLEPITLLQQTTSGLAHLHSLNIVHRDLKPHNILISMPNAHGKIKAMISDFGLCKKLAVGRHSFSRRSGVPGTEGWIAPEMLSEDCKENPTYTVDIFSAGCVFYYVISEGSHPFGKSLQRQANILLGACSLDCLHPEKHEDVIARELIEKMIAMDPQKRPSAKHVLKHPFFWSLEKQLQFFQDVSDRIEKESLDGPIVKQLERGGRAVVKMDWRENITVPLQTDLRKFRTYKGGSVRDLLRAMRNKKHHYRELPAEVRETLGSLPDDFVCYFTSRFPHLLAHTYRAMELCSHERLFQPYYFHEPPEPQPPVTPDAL

Turning to `Cc1c(-c2ccc(C(=O)N(C)C)cc2)c(=O)oc2c(C=O)c(O)ccc12` [Example 17], the IC50 in assay [1] is less than 0.1 µM. The EC50 in assay [2] (setting [3]) was less than 10 µM. For `CN1CCN(C(=O)c2cccc(-c3ccc4c(C=O)c(O)ccc4n3)c2)CC1` [Example 42], in that order: less than 1 µM and less than 10 µM. For `COc1cc2c(CN(C)C)c(C)c(=O)oc2c(C=O)c1O` [Example 133], in that order: less than 0.1 µM and less than 10 µM. On to `COc1cc(O)c(C=O)c2oc(=O)c(CC(=O)N3CCOCC3)c(C)c12` [Example 177], for which the IC50 in assay [1] is less than 0.1 µM. Also, in assay [2] (setting [3]), the EC50 was less than 10 µM. For `CCc1cc2c(C)c(-c3ccc(C(=O)N4CCOCC4)cc3)c(=O)oc2c(C=O)c1O` [Example 119], in assay [1], the IC50 was less than 1 µM. The EC50 in assay [2] is greater than 10 µM. For `CC(C)c1cc(=O)oc2c(C=O)c(O)ccc12` [Example 5], in that order: less than 0.1 µM and less than 10 µM. In assay [1], `COc1cc2c(CN3CCOCC3)c(C)c(=O)oc2c(C=O)c1O` [Example 132] gave an IC50 of less than 0.1 µM. Moreover, in assay [2] (setting [3]), the EC50 is less than 10 µM. For `COCCOc1cc(O)c(C=O)c2oc(=O)c(CCC(=O)N3CCOCC3)c(C)c12` [Example 153], in that order: less than 0.1 µM and less than 10 µM.

Turning to `COCc1cc(=O)oc2c(C=O)c(O)c(OC)cc12` [Example 136], the IC50 in assay [1] is less than 1 µM. Also, in assay [2] (setting [3]), the EC50 was less than 10 µM. For `[2H]C(=O)c1c(O)ccc2c(C)c(-c3ccc(C(=O)NCCN4CCOCC4)cc3)c(=O)oc12` [Example 116], in that order: less than 0.1 µM and less than 10 µM. On to `CN1CCN(c2ncc(C(=O)N3CCc4c(ccc(O)c4C=O)C3)s2)CC1` [Example 38], for which the IC50 in assay [1] was less than 0.1 µM. Besides, in assay [2] (setting [3]), the EC50 is greater than 10 µM. Consider `CCOC(=O)c1sc(-c2cc3ccc(O)c(C=O)c3oc2=O)nc1C` [Example 68], for which the IC50 in assay [1] is less than 0.1 µM. Also, in assay [2] (setting [3]), the EC50 was less than 10 µM. For `O=Cc1c(O)ccc2nc(-c3ccc(C(=O)NCCN4CCOCC4)cc3)ccc12` [Example 45], in that order: less than 1 µM and less than 10 µM. For `Cc1c(-c2ccc(C(=O)NCCN3CCOCC3)cc2)c(=O)oc2c(C=O)c(O)c(Cl)cc12` [Example 151], in that order: less than 1 µM and greater than 10 µM. `COc1cc2c3c(c(=O)oc2c(C=O)c1O)CCC3` [Example 198] yielded an IC50 in assay [1] greater than 1 µM. In addition, the EC50 in assay [2] was less than 10 µM.

In assay [1], `CN1CCN(CC(=O)N2CCc3c(ccc(O)c3C=O)C2)CC1` [Example 30] showed an IC50 greater than 10 µM.

`COCOCCNC(=O)Cc1c(C)c2cc(OC)c(O)c(C=O)c2oc1=O` [Example 149] yielded an IC50 in assay [1] of less than 1 µM. Further, the EC50 in assay [2] (setting [3]) is less than 10 µM. For `O=Cc1c(O)ccc2c(=O)c(-c3cnn(-c4ccccc4)c3)coc12` [Example 40], in that order: less than 1 µM and greater than 10 µM. In assay [1], `COc1cc2c(C)c(C(C)C)c(=O)oc2c(C=O)c1O` [Example 200] registered an IC50 of less than 0.1 µM. Besides, the EC50 in assay [2] was greater than 10 µM. Compound `Cc1nc(-c2c(C)c3ccc(O)c(C=O)c3oc2=O)sc1C(=O)N1CCN(C)CC1` [Example 110] came in with an IC50 in assay [1] of less than 1 µM. Besides, the EC50 in assay [2] was less than 10 µM. In assay [1], `CCc1cc2c(C)c(-c3ccc(C(=O)NCCOC)cc3)c(=O)oc2c(C=O)c1O` [Example 118] gave an IC50 of less than 0.1 µM. Further, the EC50 in assay [2] (setting [3]) was less than 10 µM. In turn, `COCCOc1cc(O)c(C=O)c2oc(=O)cc(C)c12` [Example 121] returned an IC50 in assay [1] of less than 0.1 µM. The EC50 in assay [2] is less than 10 µM.

For `COCCNC(=O)CCc1c(C)c2cc(OCCOC)c(O)c(C=O)c2oc1=O` [Example 184], the IC50 in assay [1] is less than 0.1 µM. Moreover, the EC50 in assay [2] (setting [3]) is less than 10 µM.

In assay [1], `COCCNC(=O)CCc1c(C)c2c(OCCOC)cc(O)c(C=O)c2oc1=O` [Example 152] showed an IC50 of less than 1 µM. Moreover, the EC50 in assay [2] (setting [3]) was less than 10 µM. For `COCCOc1cc(O)c(C=O)c2oc(=O)c(CCC(=O)NCCN3CCOCC3)c(C)c12` [Example 156], in that order: less than 1 µM and greater than 10 µM. For `COc1cc(O)c(C=O)c2oc(=O)c(CCC(=O)N3CCOCC3)c(C)c12` [Example 192], in that order: less than 1 µM and less than 10 µM. For `Cc1c(-c2ccc(N3CCN(C)CC3)nc2)c(=O)oc2c(C=O)c(O)ccc12` [Example 14], in that order: less than 0.1 µM and less than 10 µM. Consider `CN1CCN(C(=O)c2cnc(-c3cc4ccc(O)c(C=O)c4oc3=O)s2)CC1` [Example 107], for which the IC50 in assay [1] was less than 0.1 µM. Also, the EC50 in assay [2] (setting [3]) was less than 10 µM. The compound `O=Cc1c(O)ccc2nc(-c3ccc(C(=O)N4CCOCC4)cc3)ccc12` [Example 44] registered an IC50 in assay [1] of less than 1 µM. The EC50 in assay [2] (setting [3]) is less than 10 µM. As to `O=Cc1c(O)ccc2c1CCN(C(=O)c1cccnc1)C2` [Example 31], in assay [1], the IC50 is greater than 10 µM. `CCNC(=O)Cc1c(C)c2cc(OC)c(O)c(C=O)c2oc1=O` [Example 169]: the IC50 in assay [1] was less than 0.1 µM. Also, in assay [2] (setting [3]), the EC50 was less than 10 µM.

The compound `COCCOc1cc2c(C)c(CCC(=O)N3CCOCC3)c(=O)oc2c(C=O)c1O` [Example 181] displayed an IC50 in assay [1] of less than 0.1 µM. In addition, in assay [2] (setting [3]), the EC50 is less than 10 µM. For `COc1cc2c(C)c(CC(=O)N3CCN(C)CC3)c(=O)oc2c(C=O)c1O` [Example 168], in that order: less than 0.1 µM and less than 10 µM. For `COc1cc2c(C)c(-c3ccc(C(=O)N4CCN(C)CC4)cc3)c(=O)oc2c(C=O)c1O` [Example 111], in that order: less than 0.1 µM and less than 10 µM.

The compound `Cc1nc(N2CCc3c(ccc(O)c3C=O)C2)sc1C(=O)NC1CCNCC1` [Example 35] came in with an IC50 in assay [1] of less than 0.1 µM. Besides, the EC50 in assay [2] (setting [3]) was greater than 10 µM. In turn, `Cc1nc(-c2cc3ccc(O)c(C=O)c3oc2=O)sc1C(=O)NCCN1CCOCC1` [Example 109] showed an IC50 in assay [1] of less than 0.1 µM. In assay [2] (setting [3]), the EC50 was less than 10 µM. Take `COCCOc1cc2c(C)c(CCC(=O)NCCN(C)C)c(=O)oc2c(C=O)c1O` [Example 185]: in assay [1], the IC50 was less than 0.1 µM. Also, the EC50 in assay [2] was greater than 10 µM. For `O=Cc1c(O)ccc2cc(C(=O)O)c(=O)oc12` [Example 8], in that order: greater than 10 µM and greater than 10 µM.

`Cc1c(CCC(=O)NCCN2CCOCC2)c(=O)oc2c(C=O)c(O)ccc12` [Example 201] had an IC50 in assay [1] of less than 0.1 µM. For the same compound, the EC50 in assay [2] (setting [3]) was less than 10 µM.

Take `Cc1c(CC(=O)O)c(=O)oc2c(C=O)c(O)ccc12` [Example 70]: the IC50 in assay [1] is less than 0.1 µM. For the same compound, the EC50 in assay [2] was greater than 10 µM. In the case of `COC(=O)c1cccc(-c2nc3ccc(O)c(C=O)c3[nH]2)c1` [Example 65], the IC50 in assay [1] is less than 0.1 µM. Moreover, in assay [2], the EC50 is less than 10 µM.

Regarding `CCNC(=O)CCc1c(C)c2c(OCCOC)cc(O)c(C=O)c2oc1=O` [Example 155], the IC50 in assay [1] is less than 1 µM. The EC50 in assay [2] is less than 10 µM. `COc1cc2c(C)c(CCC(=O)NCCN(C)C)c(=O)oc2c(C=O)c1O` [Example 175] had a concentration for half-maximal inhibition (IC50) in assay [1] of less than 1 µM. The EC50 in assay [2] (setting [3]) is greater than 10 µM.

Turning to `COCCNC(=O)Cc1c(C)c2cc(OC)c(O)c(C=O)c2oc1=O` [Example 166], the IC50 in assay [1] was less than 1 µM. Also, the EC50 in assay [2] (setting [3]) is less than 10 µM. In assay [1], `COc1cc(O)c(C=O)c2oc(=O)cc(C)c12` [Example 120] registered an IC50 of less than 1 µM. Besides, the EC50 in assay [2] is less than 10 µM.

Turning to `COc1cc2c(C)c(-c3ccc(C(=O)N4CCOCC4)s3)c(=O)oc2c(C=O)c1O` [Example 142], the IC50 in assay [1] is less than 0.1 µM. In addition, the EC50 in assay [2] (setting [3]) was less than 10 µM. For `COc1cc2c(C)c(CC(=O)NCCN(C)C)c(=O)oc2c(C=O)c1O` [Example 170], in that order: less than 1 µM and less than 10 µM.

In turn, `CCc1cc2c(=O)c(-c3nc(C)cs3)coc2c(C=O)c1O` [Example 39] displayed an IC50 in assay [1] of less than 0.1 µM. Also, the EC50 in assay [2] (setting [3]) is greater than 10 µM. In turn, `Cc1nc(N2CCc3c(ccc(O)c3C=O)C2)sc1C(=O)N1CCN(C)CC1` [Example 32] registered an IC50 in assay [1] of less than 10 µM.
